One data set deals with rats. Briefly: Methamphetamine-induced disruption of prepulse inhibition (PPI) in rats. The conditions noted are these: administered 30 min before methamphetamine. In kind it is in vivo, rat. The method, then: To assay antipsychotic properties of the compounds according to the invention, prepulse inhibition (PPI) of acoustic startle in animals was performed. Startle response was measured using SR-LAB startle chamber (San Diego Instruments, San Diego, USA). The animal enclosure was housed in a ventilated and sound-attenuated startle chamber with 60 dB ambient noise level, and consisted of a Plexiglas cylinder 40 mm in diameter on a platform, connected to a piezoelectric accelerometer which detects and transducer motion within the cylinder. Acoustic noise bursts were presented through a loudspeaker mounted 24 ? above the animal. […] Each startle session began with a 5-min acclimatization period in the chamber to 68 dB background noises. The test session consisting of the following four different trial types was carried for all experiments: a 40 ms broadband 120 dB burst (P; pulse alone trial), P preceded 100 ms earlier by a 20 ms noise burst 10 dB above background (pP; prepulse+pulse trial), a 40 ms broadband 78 dB burst (prepulse alone trial), and a no stimulus trial (background). Eight trials of each type were presented in a pseudorandom order (total32 trials) with an average interval of 15 sec. separating each trial. An extra 5 pulse-alone trials were presented at the beginning and end of each test session, but were not used in the calculation of PPI values. PPI was defined as the percent reduction in startle amplitude in the presence of prepulse compared to the amplitude in the absence of the prepulse using the following Math Equation 1. […] Differences were considered significant at P<0.05. Statistical analyses were conducted using SigmaStat software (SigmaStat, Jandel Co., San Rafael, Calif.). The data were expressed as means±SEM.

The subject of data set [1] is HeLa cells transfected with the human 5-HT6 receptor. Briefly: Cytotoxicity in HeLa cells transfected with the human 5-HT6 receptor. Type of data set: cell-based. The conditions noted are these: at the concentrations tested.
Data set [2] concerns the target T1, Human serotonin 5-HT6 receptor (Homo sapiens, UniProt P50406).
T1 construct: made in house; host or cells: insect Sf21 cells (baculovirus vector BacPAK8)
Briefly: [3H]LSD binding assay on cloned 5-HT6 receptor membranes. The following applies: for binding affinity at 5-HT6 receptor labeled by [3H]LSD, in words: comment on Table 2.

Another data set has as its target D1 (Homo sapiens, UniProt P21728). Briefly: Radioligand binding, dopamine D1. The conditions noted are these: Table 4; read-out: Binding affinity, IC50 (nM) D1.
The next data set has as its target T2, 5-HT2a (Homo sapiens, UniProt P28223).
T2 construct: purchased Euroscreen/BioSignal Packard Inc
The data set is described as follows: Radioligand binding, 5-HT2a ([3H]Ketanserin). The following applies: Table 4; [3H]Ketanserin 1 nM; read-out: Binding affinity, IC50 (nM) 5-HT2a.

Where [3] appears, read: Table 2, 1.87 nM [3H]LSD, 37 C, 60 min, read-out: IC50 (nM), binding affinity to the 5-HT6 receptor.
The mark [4] stands for this setting: Table 4, read-out: Binding affinity, IC50 (nM) 5-HT6.

A word on the IC50: it is the concentration at which inhibition is half-maximal.

Read-outs that look alike come from different tables or passages of the source.

T1 sequence (P50406 whole entry): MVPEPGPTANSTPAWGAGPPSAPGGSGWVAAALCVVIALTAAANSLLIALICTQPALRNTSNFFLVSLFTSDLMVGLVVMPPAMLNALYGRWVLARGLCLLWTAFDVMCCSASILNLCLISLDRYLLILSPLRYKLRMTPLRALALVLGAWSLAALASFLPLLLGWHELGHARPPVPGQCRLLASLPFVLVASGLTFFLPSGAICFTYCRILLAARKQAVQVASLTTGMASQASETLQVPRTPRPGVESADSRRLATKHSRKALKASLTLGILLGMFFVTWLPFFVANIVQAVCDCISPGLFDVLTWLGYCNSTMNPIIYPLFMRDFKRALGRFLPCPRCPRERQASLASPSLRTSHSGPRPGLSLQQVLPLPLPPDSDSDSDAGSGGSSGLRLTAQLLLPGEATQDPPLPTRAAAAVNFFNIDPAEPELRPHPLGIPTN
Chain of D1 (P21728 whole entry): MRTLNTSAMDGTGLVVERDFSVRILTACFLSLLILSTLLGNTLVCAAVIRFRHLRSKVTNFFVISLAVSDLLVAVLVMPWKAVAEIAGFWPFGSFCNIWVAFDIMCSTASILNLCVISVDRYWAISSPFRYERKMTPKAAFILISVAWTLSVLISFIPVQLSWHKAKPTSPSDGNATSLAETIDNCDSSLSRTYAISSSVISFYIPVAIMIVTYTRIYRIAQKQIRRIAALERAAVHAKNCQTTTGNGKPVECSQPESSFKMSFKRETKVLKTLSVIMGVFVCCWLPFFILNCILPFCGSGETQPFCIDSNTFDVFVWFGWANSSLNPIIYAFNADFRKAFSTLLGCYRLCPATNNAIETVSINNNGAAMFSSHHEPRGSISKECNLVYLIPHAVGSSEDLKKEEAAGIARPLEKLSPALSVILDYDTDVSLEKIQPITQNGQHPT
T2 sequence (P28223 whole entry): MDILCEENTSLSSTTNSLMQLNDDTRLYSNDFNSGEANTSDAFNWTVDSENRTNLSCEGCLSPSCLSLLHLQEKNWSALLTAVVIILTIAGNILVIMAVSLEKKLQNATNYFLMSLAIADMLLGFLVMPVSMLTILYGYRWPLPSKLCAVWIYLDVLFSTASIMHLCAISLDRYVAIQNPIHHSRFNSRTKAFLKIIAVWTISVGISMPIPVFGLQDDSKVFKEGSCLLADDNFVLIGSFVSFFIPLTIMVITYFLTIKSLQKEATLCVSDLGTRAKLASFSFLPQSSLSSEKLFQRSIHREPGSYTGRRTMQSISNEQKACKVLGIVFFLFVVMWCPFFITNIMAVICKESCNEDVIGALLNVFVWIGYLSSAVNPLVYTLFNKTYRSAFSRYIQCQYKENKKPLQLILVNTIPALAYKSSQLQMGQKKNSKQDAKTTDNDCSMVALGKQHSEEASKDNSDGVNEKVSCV

On to `CC1(c2ccc(O)cc2)C(=O)c2c(N3CCNCC3)cc(Cl)cc2N(Cc2ccccc2)C1=O` (racemic) [Example 14, 1-Benzyl-7-chloro-3-(4-hydroxy-phenyl)-3-methyl-5-piperazin-1-yl-1H-quinoline-2,4-dione], for which, in the data set on rats, the “mean startle amplitude compared with methamphetamine group” value was “no significant differences”. The cytotoxicity result in data set [1] was “did not show any cytotoxicity”. For the same compound, the IC50 was found to be 1 nM in data set [2] (setting [3]), 1 nM in data set [2] (setting [4]), 6820 nM on D1 and 2140 nM on 5-HT2a. Moreover, in data set [2], the “binding affinity at 5-HT6 receptor labeled by [3H]LSD, in words” value is “significant affinities”.

Consider `COc1ccc(C2(C)C(=O)c3c(N4CCNCC4)cc(Cl)cc3N(Cc3ccccc3)C2=O)cc1` (racemic) [Example 13, 1-Benzyl-7-chloro-3-(4-methoxy-phenyl)-3-methyl-5-piperazin-1-yl-1H-quinoline-2,4-dione], for which, in the data set with rats, the “mean startle amplitude compared with methamphetamine group” value is on record as “no significant differences”. The IC50 in data set [2] (setting [3]) is 0.9 nM; in data set [2] (setting [4]), 0.9 nM; on D1, 3590 nM; at 5-HT2a, 543 nM. Further, in data set [2], the “binding affinity at 5-HT6 receptor labeled by [3H]LSD, in words” value was “significant affinities”.

The values above are taken from US20080275058A1, “N-Substituted-1H-Quinoline-2,4-Diones, Preparation Method Thereof, And Pharmaceutical Composition Containing The Same” (KOREA RESEARCH INSTITUTE OF CHEMICAL TECHNOLOGY, priority 2005, published 2008).
